Data set [1] concerns the target T1, N-acylethanolamine-hydrolyzing acid amidase (Homo sapiens, UniProt Q02083).
T1 sequence (Q02083 whole entry): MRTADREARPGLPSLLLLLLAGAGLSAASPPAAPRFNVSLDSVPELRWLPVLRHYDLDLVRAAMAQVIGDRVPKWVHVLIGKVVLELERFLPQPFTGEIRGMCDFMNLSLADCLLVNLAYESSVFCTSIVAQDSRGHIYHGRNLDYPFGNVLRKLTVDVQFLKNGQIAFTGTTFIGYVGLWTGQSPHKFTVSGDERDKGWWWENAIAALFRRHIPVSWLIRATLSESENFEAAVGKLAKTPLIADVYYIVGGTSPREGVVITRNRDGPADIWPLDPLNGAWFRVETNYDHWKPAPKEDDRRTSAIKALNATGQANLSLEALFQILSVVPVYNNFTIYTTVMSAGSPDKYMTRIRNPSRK
Kind of data set: Inhibition of human NAAA using N-(4-methyl coumarin)-palmitamide as fluorogenic substrate preincubated for 90 mins followed by substrate addition by fluorescence assay.

A short description of data set [2]: MRT in CD-1 mouse plasma at 2 mg/kg, iv measured up to 8 hrs. Type of data set: ADME, organism-based.
The nature of data set [3]: Oral bioavailability in CD-1 mouse plasma at 8 mg/kg measured up to 8 hrs. Format: ADME, organism-based.
Data set [4] is described as follows: AUC in CD-1 mouse brain at 2 mg/kg, iv measured up to 6 hrs. Type of data set: ADME, organism-based. On the set-up: route intravenous, dose 2 mg/kg, time <=6.
The target in the next data set is T2, Cytochrome P450 1A2 (Homo sapiens, UniProt P05177).
T2 sequence (P05177 whole entry): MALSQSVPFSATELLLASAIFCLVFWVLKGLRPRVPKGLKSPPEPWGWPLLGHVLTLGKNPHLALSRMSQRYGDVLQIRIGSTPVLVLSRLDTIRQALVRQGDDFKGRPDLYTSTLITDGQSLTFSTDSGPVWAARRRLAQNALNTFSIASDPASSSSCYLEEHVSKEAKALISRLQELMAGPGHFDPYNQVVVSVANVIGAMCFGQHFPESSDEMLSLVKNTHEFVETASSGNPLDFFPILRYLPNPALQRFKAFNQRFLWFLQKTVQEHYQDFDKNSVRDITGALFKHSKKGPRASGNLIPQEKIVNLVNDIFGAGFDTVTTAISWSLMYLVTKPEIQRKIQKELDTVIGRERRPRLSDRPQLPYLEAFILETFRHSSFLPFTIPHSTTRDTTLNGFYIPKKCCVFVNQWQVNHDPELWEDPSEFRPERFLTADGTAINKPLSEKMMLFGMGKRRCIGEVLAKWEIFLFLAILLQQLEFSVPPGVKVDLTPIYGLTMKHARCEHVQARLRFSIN
Kind of data set: Inhibition of CYP1A2 (unknown origin). Format: ADME.

Data set [5] in a line: Mutagenecity in Salmonella typhimurium TA98 in presence of S9 fraction at 5 to 100 uM by Ames test. Type of data set: toxicity, subcellular. To be noted: salmonella enterica subsp. enterica serovar typhimurium, s9, 100 µM; dose 5-100 µM.
Data set [6] can be described thus: Mutagenecity in Salmonella typhimurium TA100 in presence of S9 fraction at 5 to 100 uM by Ames test. Type of data set: toxicity, subcellular. The settings on record: salmonella enterica subsp. enterica serovar typhimurium, s9, 100 µM; dose 5-100 µM.
Data set [7] can be described thus: Mutagenecity in Salmonella typhimurium TA100 in absence of S9 fraction at 5 to 100 uM by Ames test. Format: toxicity. The settings on record: salmonella enterica subsp. enterica serovar typhimurium, s9, 100 µM; dose 5-100 µM.
Data set [8] is described as follows: Mutagenecity in Salmonella typhimurium TA1537 in presence of S9 fraction at 5 to 100 uM by Ames test. Format: toxicity, subcellular. To be noted: salmonella enterica subsp. enterica serovar typhimurium, s9, 100 µM; dose 5-100 µM.
Data set [9] in a line: Mutagenecity in Salmonella typhimurium TA1537 in absence of S9 fraction at 5 to 100 uM by Ames test. To be noted: salmonella enterica subsp. enterica serovar typhimurium, s9, 100 µM; dose 5-100 µM. Type of data set: toxicity.

With `COc1ccc(-c2ccc(CO[C@H]3C[C@@H](N=C=S)C3)nc2)cc1F`, the figures for the half-inhibitory concentration (IC50) (in data set [1]; at Cytochrome P450 1A2) were 20 nM and 1800 nM, respectively. Moreover, the MRT in [2] was 20.3 min. Besides, in [3], the bioavailability is 13%. In [4], this compound showed an AUC at 6 h of 298 ng·h/mL. In addition, the Activity result in [5], in data set [6], in data set [7], in [8] and in data set [9] was “Non-Toxic” each time.

Source of the values: ChEMBL document CHEMBL4834430, “Design and Structure-Activity Relationships of Isothiocyanates as Potent and Selective N-Acylethanolamine-Hydrolyzing Acid Amidase Inhibitors” (J Med Chem, 2021).
